Patent US4667032A, “Phenothiazone derivatives and analogs” (Merck Frosst Canada, Inc., priority 1985, dated 1987)
≈ marks a conversion by molar mass, not a printed value.

How the values were obtained:
5-Lipoxygenase = molecular target: T1, 5-Lipoxygenase (Rattus norvegicus, UniProt P12527); assay: RBL-1 5-Lipoxygenase; type: biochemical; details: for IC50: Table 4, first part
T1 construct: Rat basophilic leukemia (RBL-1) cells were sonicated and centrifuged at 125000 xg; endogenous in cells; host or cells: RBL-1 (rat basophilic leukemia) cells, 125000 xg supernatant of sonicate
T1 sequence (P12527 1-673): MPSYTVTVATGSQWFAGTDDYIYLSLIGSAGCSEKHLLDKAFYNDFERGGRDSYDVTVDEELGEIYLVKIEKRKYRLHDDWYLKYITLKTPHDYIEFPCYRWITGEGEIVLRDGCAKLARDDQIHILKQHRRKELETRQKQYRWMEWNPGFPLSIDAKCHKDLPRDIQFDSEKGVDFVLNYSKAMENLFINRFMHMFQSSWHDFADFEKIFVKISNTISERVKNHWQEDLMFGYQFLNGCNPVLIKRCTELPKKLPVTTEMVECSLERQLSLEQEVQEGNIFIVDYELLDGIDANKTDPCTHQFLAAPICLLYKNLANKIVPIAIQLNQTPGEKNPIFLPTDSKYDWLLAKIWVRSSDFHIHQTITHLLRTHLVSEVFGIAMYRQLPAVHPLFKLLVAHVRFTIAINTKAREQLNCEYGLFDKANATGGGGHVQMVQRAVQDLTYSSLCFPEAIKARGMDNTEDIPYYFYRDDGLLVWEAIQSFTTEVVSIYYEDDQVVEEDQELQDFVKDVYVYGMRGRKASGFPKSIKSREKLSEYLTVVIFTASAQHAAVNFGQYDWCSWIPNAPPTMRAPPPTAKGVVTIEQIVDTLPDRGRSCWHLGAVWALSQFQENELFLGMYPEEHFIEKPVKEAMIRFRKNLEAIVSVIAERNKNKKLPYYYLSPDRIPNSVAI
Description: Rat basophilic leukemia (RBL-1) cells were sonicated and centrifuged at 125000 xg. The resulting supernatant fraction was incubated with arachidonic acid (labelled with ^14 C) to convert a portion of it to ^14 C-5(S)-hydroxyicosatetraenoic acid (5-HETE). Compounds being evaluated as inhibitors of 5-Lipoxygenase were added prior to the addition of arachidonic acid. 5-HETE was isolated by extraction and paper chromatography, and quantitated by determining the amount of radioactivity (cpm) associated with 5-HETE.
Reference: Egan, R. W., Tischler, A. M. Baptista, E. H., Ham, E. A., Soderman, D. D., and Gale, P. H., Advances in Prostaglandin, Thromboxane and Leukotriene Research 11 151 (1983), (Samuelson, B., Ramwell, P. W., and Paoletti, R. (eds.), Raven Press, N.Y.

[1] = system: Mouse peritoneal macrophages; assay: Mouse Macrophage Assay (leukotriene C4 / PGE2 / 6-keto PGF1α formation, zymosan stimulated); type: cell-based; details: Table 4, first part
Description: Mouse peritoneal macrophages were treated sequentially with arachidonic acid (labelled with tritium); the compound being evaluated as an inhibitor, and a stimulator (zymosan). Metabolites derived from arachidonic acid PGE2 6-keto PH-F1α and leukotriene C4) were separated from the incubation medium by extraction and chromatography, and then quantitated by determining the amount of radioactivity (cpm) associated with each of them. […] (This protocol is identical to that described in the reference except that the radioactivity herein associated with the LTC4 was determined by counting an aliquot of the final aqueous solution directly rather than chromatographing it first).
Reference: Humes, J. L. et al., J. Biol. Chem. 257, 1591-4, (1982).

[2] = system: tracheal chain of sensitized guinea pigs; assay: Antigen Challenge 'in vitro' Assay (egg albumin contraction of sensitized guinea pig tracheal chain)
Description: Male guinea pigs weighing 300-350 g were sensitized by injecting (I.P.) 0.5 ml of a suspension containing 0.4 mg of egg albumin (Ovalbumin, Grade V, Sigma Chemical Co.) and 4.0 g aluminum hydroxide in 19.6 ml of saline. Two weeks were permitted for sensitization to occur.
Three sensitized guinea pigs were stunned and exsanguinated. The tracheas were removed, freed of adhering tissue and divided longitudinally by cutting through the cartilaginous tissue directly opposite the muscle insertion. Each opened trachea was then transected between every second cartilage. Four of the cut sections were tied together, end to end, in a series with No. 7 silk thread ensuring that the tracheal muscles were all in the same vertical plane. Thus, each chain consisted of tissue from three different animals.
The chain so formed was then suspended under 1 g of tension (by silk ties at each end) in a 20 ml organ bath containing 10 ml of modified* Krebs-Henseleit buffer solution gassed with 95% O2 and 5% CO2 at 37° C. Mepyramine (0.55 μg/ml) and indomethacin (2.67 μg/ml) were added to the buffer to avoid the contribution of histamine receptors and cyclooxygenase products to the contraction. To record responses one end of the tracheal chain was attached to a Gould-Statham UC-2 force displacement transducer which was connected to a Beckman Type R-dynograph.The preparations were allowed to equilibrate for one hour during which time the tissues were automatically washed (10 ml volume displacement) every 6 minutes.
After the equilibration period the tissues were primed with methacholine (3 μg/ml; 1.5×10^-5 M), washed and allowed to recover to baseline. The tissues were treated again with a second dose of methacholine, washed, allowed to return to baseline and washed for an additional hour.
Two chains were used as a control. These were incubated in a concentration of egg albumin sufficient to induce an average contraction of 50-80% of the methacholine response.
Each compound to be tested was added to two other baths (at a final concentration in each bath of 10 μg/ml) 15 minutes prior to challenging the fresh chains with egg albumin.
The response of the challenged tissue was expressed as a percentage of the methacholine maximum. The % inhibition for each compound was then calculated. Compounds which at 10 μg/ml (final conc.) inhibited the egg albumin response by 50% or more were retested at a lower concentration.

`O=c1ccc2nc3ccccc3sc-2c1` [Test No. 4] was tested, and the IC50 (5-Lipoxygenase) was 0.0469 µM, the IC50 [1] was 0.1 µg/mL (≈ 0.469 µM) and the “In Vitro Antigen Challenge Test % Inhibition” value ([2]; 0.3 μg (μg/ml)) was 42%. The “In Vitro Antigen Challenge Test % Inhibition” value ([2]; 1 μg (μg/ml)) was 77% and the “In Vitro Antigen Challenge Test % Inhibition” value ([2]; 10 μg (μg/ml)) was 100%.

Compound `O=c1c(Cl)cc2nc3ccccc3sc-2c1Cl` [Test No. 5] has an inhibition at 0.05 µg/mL (5-Lipoxygenase; at 0.05 μg/ml, read-out: RBL-1, % at stated concentration) of 65%.

`O=c1ccc2nc3ccccc3sc-2c1Cl` [drawing 26] was tested, and the IC50 (5-Lipoxygenase) was 0.0404 µM, the IC50 [1] was 0.2 µg/mL (≈ 0.807 µM) and the “In Vitro Antigen Challenge Test % Inhibition” value ([2]; 1 μg (μg/ml)) was 44%. The “In Vitro Antigen Challenge Test % Inhibition” value ([2]; 10 μg (μg/ml)) was 100%.
